Source: patent US20210293825A1, “METHODS FOR PRECISION THERAPEUTIC TARGETING OF HUMAN CANCER CELL MOTILITY AND KITS THEREOF” (UNITED STATES GOVERNMENT AS REPRESENTED BY THE DEPARTMENT …, priority 2018, published 2021)

What was measured:
[1] = system: recombinant human protein kinases; test: Kinex kinase assay system (inhibition of ATP binding); conditions: tested at 1 and 10 μM
Procedure: Kinase assay system #2. The Kinex™ kinase assay system (Kinexus Proteomics Company). This platform uses recombinant human protein kinases expressed in an insect expression system, thus allowing an avenue for post-translational modification. Also, this platform measures inhibition of ATP binding. This platform putatively measured 200 different kinases, and we tested KBU2046 at 1 and 10 μM. […] There were two important technical issues. First, at 10 μM KBU2046 interfered with the colorimetric-based readout of the assay. […] Conclusions: there was no evidence that KBU2046 inhibits kinase function by competing for ATP binding in the active site.

[2] = system: human prostate, breast, colon and lung cancer cells; test: Single cell migration (motility) assay; format: cell-based; conditions: 10 μM, 3 days
Text: FIG. 1a is a schematic flow of probe synthesis and development strategy. […] Values are mean±SEM of a single experiment in replicates of N=4, with similar findings in multiple separate experiments (also N=4). […] Values are mean±SEM of a single experiment in replicates of N=24, with similar findings in a separate experiment (also N=24). *Denotes Student's t test P value <0.05, compared to controls. […] Values are mean±SEM from N>2 separate experiments, each in replicates of N=3. […] Values are the mean±SD number of total, CFU-GM, CFU-GEMM or BFU-E colonies at 14 days after treatment with KBU2046, from a single experiment in replicates of N=2. […] Values are the mean±SD of a single experiment, with similar results seen in a separate experiment, both in replicates of N=2.
Cell Migration Assays. Single cell motility assays were conducted by adding 10^4 cells to 35 mm tissue culture dishes (BD Falcon) coated with collagen I (BD Biosciences), incubating at 37° C. in 5% CO2, performing time-lapse imaging using a Biostation (Nikon Instruments), tracking the path of N≥35 cells using ImageJ software and the Manual Tracker plug-in, and using Chemotaxis and Migration Tool plug-in for data analysis.

[3] = biological target: T1, HSP90β/CDC37 heterocomplexes (Homo sapiens, UniProt P08238+Q16543); test: DARTS assay with HSP90β and CDC37 combined; format: binding
T1 construct: made in house; host or cells: E. coli (Rosetta BL-21 for HSP90B, BL-21 DE-3 for CDC37)
T1 sequence (P08238 whole entry): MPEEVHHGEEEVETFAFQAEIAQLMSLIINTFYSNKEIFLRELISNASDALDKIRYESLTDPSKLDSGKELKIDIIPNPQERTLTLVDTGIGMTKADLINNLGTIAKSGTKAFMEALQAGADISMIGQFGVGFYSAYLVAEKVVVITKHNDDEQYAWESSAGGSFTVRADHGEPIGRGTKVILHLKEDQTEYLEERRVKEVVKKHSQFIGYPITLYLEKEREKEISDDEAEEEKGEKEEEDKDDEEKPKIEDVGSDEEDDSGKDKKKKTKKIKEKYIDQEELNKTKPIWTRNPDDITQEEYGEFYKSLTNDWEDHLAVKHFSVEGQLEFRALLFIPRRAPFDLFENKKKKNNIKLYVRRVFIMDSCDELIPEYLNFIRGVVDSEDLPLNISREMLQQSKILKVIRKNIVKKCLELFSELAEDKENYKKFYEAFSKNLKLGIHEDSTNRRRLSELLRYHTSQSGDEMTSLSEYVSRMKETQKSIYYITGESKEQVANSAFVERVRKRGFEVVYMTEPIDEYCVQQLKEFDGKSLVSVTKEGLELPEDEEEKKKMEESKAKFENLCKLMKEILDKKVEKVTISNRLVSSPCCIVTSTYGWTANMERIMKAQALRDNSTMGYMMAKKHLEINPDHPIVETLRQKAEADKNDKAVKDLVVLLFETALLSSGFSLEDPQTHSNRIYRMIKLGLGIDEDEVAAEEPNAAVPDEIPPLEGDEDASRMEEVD
T1 sequence (Q16543 whole entry): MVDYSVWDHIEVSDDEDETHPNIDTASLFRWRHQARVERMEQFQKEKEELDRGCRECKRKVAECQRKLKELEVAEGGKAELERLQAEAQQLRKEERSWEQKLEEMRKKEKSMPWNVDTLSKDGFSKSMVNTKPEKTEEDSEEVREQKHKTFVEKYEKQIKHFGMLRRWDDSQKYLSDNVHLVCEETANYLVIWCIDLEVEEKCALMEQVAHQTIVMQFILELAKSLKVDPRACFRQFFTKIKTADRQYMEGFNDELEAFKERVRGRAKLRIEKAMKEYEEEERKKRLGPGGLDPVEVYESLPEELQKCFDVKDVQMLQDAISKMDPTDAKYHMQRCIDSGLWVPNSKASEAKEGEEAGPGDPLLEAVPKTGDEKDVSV
Procedure: Equimolar amounts of HSP90β and CDC37 protein were pre-incubated with KBU2046, and resultant thermolysin reaction products were detected by silver stain following SDS-PAGE.
DARTS provides a sensitive measure of ligand-induced changes in protein structure and dynamics by measuring the ability of a ligand to protect its target from protease digestion (Lomenick, B. et al., Proc Natl Acad Sci USA 106, 21984-9 (2009)). […] The intensity of the CDC37 band increased, that of the HSP90β degradation product decreased, and both effects were statistically significant, concentration-dependent and were evident at 10 nM. […] Further, these findings also indicate that KBU2046 is not acting as a classical HSP90 inhibitor.
Biophysical and Biochemical Binding Assays. Fluorescent thermal shift (Krishna, S. N. et al., PLoS One 8, e81504 (2013)), isothermal titration calorimetry (Chavez, J. D. et al., Mol Cell Proteomics 12, 1451-67 (2013)), and biolayer interferometry assays (Makowska-Grzyska, M. et al., Biochemistry 51, 6148-63 (2012)), were performed using MEK4EE (37-399, S257E, T261E) cloned into pMCSG7 and KRX Competent E. coli cells (Promega Inc.) and full-length HSP90B and CDC37 vectors and Rosetta BL-21 and BL-21 DE-3 competent E. coli cells, respectively. […]

[4] = biological target: T2, RAF1 with HSP90β and CDC37 (Homo sapiens, UniProt P08238+Q16543); test: HSP90β/CDC37 heterocomplex in vitro kinase assay with RAF1; format: biochemical; conditions: purified recombinant RAF1, HSP90β and CDC37
T2 construct: host or cells: E. coli for HSP90β and CDC37
T2 sequence (P08238 whole entry): as the sequence (P08238 whole entry) above
T2 sequence (Q16543 whole entry): as the sequence (Q16543 whole entry) above
Procedure: HEK293T cells were transfected with 1 of 420 different protein kinases, treated with 10 μM KBU2046 (N=5 replicates) or vehicle control (N=5) for three days, and LUMIER assays performed. The N=17 kinases that gave significant findings (Student's t-test <0.05) in the same direction in each of two separate experiments are depicted. Each separate treatment and kinase condition in each of two separate experiments was conducted in replicates of N=5. […] FIGS. 6c and 6d show the results of the wound healing assay. PC3 cells were transfected with siRNA targeting RAF1 (si-Raf1) or non-targeting siRNA (si-control), treated with KBU2046 or vehicle as above, and RAF1 protein measured by Western blot (c) and effects upon wound healing measured (d). […] Purified recombinant HSP90β, CDC37, and RAF1 were combined with KBU2046, as indicated, incubated in an in vitro kinase assay for the indicated times, and Western blot for RAF1-Ser^338 phosphorylation performed. FIGS. 6f and 6g show the effect on HSP90β/CDC37 heterocomplex formation and function in vitro. Purified recombinant HSP90β, CDC37, RAF1, SGK3 or MAP3K6 were combined and treated with KBU2046 or vehicle control, as indicated, incubated in an in vitro kinase assay for the indicated times, and Western blot performed, as denoted. Experiments were repeated at separate times at least once, with similar results. […]

[5] = system: RAF1 in PC3 and PC3-M cells; test: RAF1-Ser338 phosphorylation in prostate cancer cells (Western blot); format: cell-based, human; conditions: 10 μM
Procedure: PC3 and PC3-M human prostate cancer cells were treated with 10 μM KBU2046 for the indicated lengths of time; control cells (C) were treated with vehicle. Levels of RAF1-Ser^338 phosphorylation (pRaf1), total RAF1, and GAPDH proteins were then measured by Western blot.

Question: With `O=C1c2ccccc2OCC1c1ccc(F)cc1` (racemic) [KBU2046, (±)-3(4-fluorophenyl)chroman-4-one] as the compound, how does the “inhibition of ATP binding” value [1] read?
Answer: The value was “completely negative”.

Question: And the “inhibition of cell migration” value [2]?
Answer: Its value is “inhibited the migration”.

Question: And the “concentration at which effects on CDC37 and HSP90β bands were evident” value ([3]; concentration-dependent)?
Answer: The value was 10 nM.

Question: And the “protection from thermolysin digestion” value ([3]; equimolar HSP90β and CDC37)?
Answer: Its value is “protected both proteins from digestion”.

Question: What about the “phosphorylation of RAF1 Ser338 activation motif” value [4] of the same compound?
Answer: The value was “decreased phosphorylation of RAF1's Ser338 activation motif”.

Question: What about the “levels of phospho-RAF1” value [5] of the same compound?
Answer: The value was “decreased levels of phospho-RAF1 in a time-dependent manner”.
